Source: patent US20110136801A1, “Novel Compounds” (Dainippon Sumitomo Pharma Co. Ltd., priority 2009, published 2011)

Legend:
Male Brown Norway rats = test: Antigen-induced pulmonary inflammation in a rat asthma model (eosinophils and Th2 cytokines in BALF); assay type: in vivo; conditions: BALF 48 hours after challenge
Method: Rats were sensitized and challenged to produce allergic airway inflammation in a similar manner to that described by Underwood et al (British Journal of Pharmacology 2002; 137: 263-275, 2002). Male Brown Norway rats were sensitized subcutaneously with ovalbumin (OVA) and aluminum hydroxide on day 0, and challenged with aerosolized OVA solution on day 14. The test compound was administered twice intratracheally 24 hours before and 24 hours after the OVA-challenge and bronchoalveolar lavage fluid (BALF) was collected 48 hours after the OVA-challenge. Then eosinophils and Th2 cytokines (IL-5 and IL-13) in the BALF were measured to evaluate efficacy of the test compounds of this invention.

human TLR7 = target: T1, human TLR7 (Homo sapiens, UniProt Q9NYK1); test: Human TLR7 Assay (SEAP reporter in HEK293 cells); assay type: cell-based; conditions: HEK293 cell line expressing human TLR7 and pNiFty2-SEAP reporter, overnight incubation at 37° C., 0.1% DMSO; read-out: hTLR7 EC50;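 also: Read-out is secreted alkaline phosphatase made under an NFkB/ELAM-1 composite promoter, reporting TLR7-triggered NFkB activation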
T1 construct: expressed in transfected cells; host or cells: HEK293 cell line stably expressing the pNiFty2-SEAP reporter plasmid; TLR7 in pUNO vector, blasticidin selection
T1 sequence (Q9NYK1 27-1049): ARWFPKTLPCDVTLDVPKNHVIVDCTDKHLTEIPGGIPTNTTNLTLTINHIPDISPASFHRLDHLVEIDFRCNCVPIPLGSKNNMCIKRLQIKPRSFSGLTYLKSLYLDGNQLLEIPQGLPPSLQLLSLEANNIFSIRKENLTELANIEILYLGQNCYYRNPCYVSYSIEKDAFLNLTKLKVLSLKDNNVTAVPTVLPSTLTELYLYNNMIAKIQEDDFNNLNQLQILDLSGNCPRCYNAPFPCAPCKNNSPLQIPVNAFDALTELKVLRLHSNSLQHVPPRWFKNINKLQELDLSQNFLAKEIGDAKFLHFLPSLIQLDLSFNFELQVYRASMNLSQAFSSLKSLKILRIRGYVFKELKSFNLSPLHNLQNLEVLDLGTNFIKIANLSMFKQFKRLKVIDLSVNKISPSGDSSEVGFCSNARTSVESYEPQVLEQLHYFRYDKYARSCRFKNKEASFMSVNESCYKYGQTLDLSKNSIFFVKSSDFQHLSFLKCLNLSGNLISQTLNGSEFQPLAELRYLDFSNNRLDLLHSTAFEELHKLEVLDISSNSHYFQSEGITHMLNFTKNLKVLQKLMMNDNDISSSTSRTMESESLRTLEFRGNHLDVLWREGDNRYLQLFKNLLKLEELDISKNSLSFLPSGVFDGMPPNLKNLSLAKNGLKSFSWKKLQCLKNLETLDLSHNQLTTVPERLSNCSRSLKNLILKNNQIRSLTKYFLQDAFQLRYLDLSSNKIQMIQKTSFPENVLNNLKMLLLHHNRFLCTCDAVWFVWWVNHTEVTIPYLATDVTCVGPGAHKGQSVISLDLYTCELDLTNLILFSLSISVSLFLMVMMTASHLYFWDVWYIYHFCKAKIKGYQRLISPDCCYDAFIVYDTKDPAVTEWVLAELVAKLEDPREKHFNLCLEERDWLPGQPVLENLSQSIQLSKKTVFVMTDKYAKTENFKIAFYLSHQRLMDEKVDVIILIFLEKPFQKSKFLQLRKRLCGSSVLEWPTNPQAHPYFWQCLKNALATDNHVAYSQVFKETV

[1] = 0.1 mg/kg intratracheally 24 hours before and 24 hours after OVA-challenge
[2] = 1.0 mg/kg intratracheally 24 hours before and 24 hours after OVA-challenge
[3] = 0.01 mg/kg intratracheally 24 hours before and 24 hours after OVA-challenge

CCCCc1nc2c(N)nc3ccccc3c2n1CCCN(Cc1cccc(OCC(=O)OC)c1)C(=O)CN(C)C [Example 9, Methyl (3-{[[3-(4-amino-2-butyl-1H-imidazo[4,5-c]quinolin-1-yl)propyl](N,N-dimethylglycyl)amino]methyl}phenoxy)acetate]
Eosinophiles in BALF, inhibition (%) to OVA-Challenge control (Male Brown Norway rats; [1]): 53%
IL-5 in BALF, inhibition (%) to OVA-Challenge control (Male Brown Norway rats; [1]): 66%
IL-13 in BALF, inhibition (%) to OVA-Challenge control (Male Brown Norway rats; [1]): 89%
Eosinophiles in BALF, inhibition (%) to OVA-Challenge control (Male Brown Norway rats; [2]): 77%
IL-5 in BALF, inhibition (%) to OVA-Challenge control (Male Brown Norway rats; [2]): 72%
IL-13 in BALF, inhibition (%) to OVA-Challenge control (Male Brown Norway rats; [2]): 85%

CCN(CC)CC(=O)N(CCCn1c(CCOC)nc2c(N)nc3ccccc3c21)Cc1cccc(OCC(=O)OC)c1 [Example 20, Methyl (3-{[[3-(4-amino-2-(2-methoxyethyl)-1H-imidazo[4,5-c]quinolin-1-yl)propyl](N,N-diethylglycyl)amino]methyl}phenoxy)acetate]
EC50 (human TLR7): 31.7 nM
Eosinophiles in BALF, inhibition (%) to OVA-Challenge control (Male Brown Norway rats; [3]): 14%
IL-5 in BALF, inhibition (%) to OVA-Challenge control (Male Brown Norway rats; [3]): No effect
IL-13 in BALF, inhibition (%) to OVA-Challenge control (Male Brown Norway rats; [3]): No effect
Eosinophiles in BALF, inhibition (%) to OVA-Challenge control (Male Brown Norway rats; [1]): 56%
IL-5 in BALF, inhibition (%) to OVA-Challenge control (Male Brown Norway rats; [1]): No effect
IL-13 in BALF, inhibition (%) to OVA-Challenge control (Male Brown Norway rats; [1]): 22%

CCN(CC)CC(=O)N(CCCn1c(CCOC)nc2c(N)nc3ccccc3c21)Cc1cccc(OCC(=O)OC(C)C)c1 [Example 27, Isopropyl 2-{3-[(N-{3-[4-amino-2-(2-methoxyethyl)-1H-imidazo[4,5-c]quinolin-1-yl]propyl}-2-(diethylamino)acetamido)methyl]phenoxy}acetate]
EC50 (human TLR7): 66.1 nM
Eosinophiles in BALF, inhibition (%) to OVA-Challenge control (Male Brown Norway rats; [1]): 64%
IL-5 in BALF, inhibition (%) to OVA-Challenge control (Male Brown Norway rats; [1]): 41%
IL-13 in BALF, inhibition (%) to OVA-Challenge control (Male Brown Norway rats; [1]): 72%
Eosinophiles in BALF, inhibition (%) to OVA-Challenge control (Male Brown Norway rats; [2]): 89%
IL-5 in BALF, inhibition (%) to OVA-Challenge control (Male Brown Norway rats; [2]): 90%
IL-13 in BALF, inhibition (%) to OVA-Challenge control (Male Brown Norway rats; [2]): 88%

CCN(CC)CC(=O)N(CCCn1c(CCOC)nc2c(N)nc3ccccc3c21)Cc1cccc(OC(C)(C)C(=O)OC)c1 [Example 56, Methyl 2-{3-[(N-{3-[4-amino-2-(2-methoxyethyl)-1H-imidazo[4,5-c]quinolin-1-yl]propyl}-2-{diethylamino}acetamido)methyl]phenoxy}-2-methylpropanoate]
EC50 (human TLR7): 33.1 nM
Eosinophiles in BALF, inhibition (%) to OVA-Challenge control (Male Brown Norway rats; [1]): 78%
IL-5 in BALF, inhibition (%) to OVA-Challenge control (Male Brown Norway rats; [1]): 86%
IL-13 in BALF, inhibition (%) to OVA-Challenge control (Male Brown Norway rats; [1]): 89%
Eosinophiles in BALF, inhibition (%) to OVA-Challenge control (Male Brown Norway rats; [2]): 94%
IL-5 in BALF, inhibition (%) to OVA-Challenge control (Male Brown Norway rats; [2]): 99%
IL-13 in BALF, inhibition (%) to OVA-Challenge control (Male Brown Norway rats; [2]): 98%

CCCc1nc2c(N)nc3ccccc3c2n1CCCN(Cc1cccc(OCC(=O)OC(C)C)c1)C(=O)CN(CC)CC [Example 160, Isopropyl 2-[3-({N-[3-(4-amino-2-propyl-1H-imidazo[4,5-c]quinolin-1-yl)propyl]-2-(diethylamino)acetamido}methyl)phenoxy]acetate]
EC50 (human TLR7): 260 nM

CCOCc1nc2c(N)nc3ccccc3c2n1CCCN(Cc1cccc(OC(C)(C)C(=O)OCC)c1)C(=O)CN(CC)CC [Example 162, Ethyl 2-{3-[(N-{3-[4-amino-2-(ethoxymethyl)-1H-imidazo[4,5-c]quinolin-1-yl]propyl}-2-{diethylamino}acetamido)methyl]phenoxy}-2-methylpropanoate]
EC50 (human TLR7): 96.4 nM

CCCCc1nc2c(N)nc3ccccc3c2n1CCCN(Cc1cccc(OCC(=O)OC(C)C)c1F)C(=O)CN(CC)CC [Example 164, Isopropyl 2-[3-({N-[3-(4-amino-2-butyl-1H-imidazo[4,5-c]quinolin-1-yl)propyl]-2-(diethylamino)acetamido}methyl)-2-fluorophenoxy]acetate]
EC50 (human TLR7): 158 nM

CCCCc1nc2c(N)nc3ccccc3c2n1CCCN(Cc1cccc(OCC(=O)OC(C)C)c1F)C(=O)CN(C)C [Example 165, Isopropyl 2-[3-({N-[3-(4-amino-2-butyl-1H-imidazo[4,5-c]quinolin-1-yl)propyl]-2-(dimethylamino)acetamido}methyl)-2-fluorophenoxy]acetate]
EC50 (human TLR7): 297 nM

CCOCc1nc2c(N)nc3ccccc3c2n1CCCN(Cc1cccc(OCC(=O)OC(C)C)c1F)C(=O)CN(CC)CC [Example 166, Isopropyl 2-{3-[(N-{3-[4-amino-2-(ethoxymethyl)-1H-imidazo[4,5-c]quinolin-1-yl]propyl}-2-{diethylamino}acetamido)methyl]-2-fluorophenoxy}acetate]
EC50 (human TLR7): 475 nM

CCOCc1nc2c(N)nc3ccccc3c2n1CCCN(Cc1cccc(OCC(=O)OC(C)C)c1F)C(=O)CN(C)C [Example 167, Isopropyl 2-{3-[(N-{3-[4-amino-2-(ethoxymethyl)-1H-imidazo[4,5-c]quinolin-1-yl]propyl}-2-{dimethylamino}acetamido)methyl]-2-fluorophenoxy}acetate]
EC50 (human TLR7): 716 nM

CCCCc1nc2c(N)nc3ccccc3c2n1CCCN(Cc1cccc(OC(C)(C)C(=O)OCC)c1)C(=O)CN1CCCC1 [Example 168, Ethyl 2-[3-({N-[3-(4-amino-2-butyl-1H-imidazo[4,5-c]quinolin-1-yl)propyl]-2-(pyrrolidin-1-yl)acetamido}methyl)phenoxy]-2-methylpropanoate]
EC50 (human TLR7): 166 nM

CCCCc1nc2c(N)nc3ccccc3c2n1CCCN(Cc1cccc(OC(C)(C)C(=O)OC)c1)C(=O)CN1CCCC1 [Example 169, Methyl 2-[3-({N-[3-(4-amino-2-butyl-1H-imidazo[4,5-c]quinolin-1-yl)propyl]-2-(pyrrolidin-1-yl)acetamido}methyl)phenoxy]-2-methylpropanoate]
EC50 (human TLR7): 155 nM

CCOCc1nc2c(N)nc3ccccc3c2n1CCCN(Cc1cccc(OC(C)(C)C(=O)OCC)c1)C(=O)CN1CCCC1 [Example 170, Ethyl 2-{3-[(N-{3-[4-amino-2-(ethoxymethyl)-1H-imidazo[4,5-c]quinolin-1-yl]propyl}-2-{pyrrolidin-1-yl}acetamido)methyl]phenoxy}-2-methylpropanoate]
EC50 (human TLR7): 521 nM

CCOCc1nc2c(N)nc3ccccc3c2n1CCCN(Cc1cccc(OC(C)(C)C(=O)OC)c1)C(=O)CN1CCCC1 [Example 171, Methyl 2-{3-[(N-{3-[4-amino-2-(ethoxymethyl)-1H-imidazo[4,5-c]quinolin-1-yl]propyl}-2-{pyrrolidin-1-yl}acetamido)methyl]phenoxy}-2-methylpropanoate]
EC50 (human TLR7): 560 nM

CCOCc1nc2c(N)nc3ccccc3c2n1CCCN(Cc1cccc(OCC(=O)OC(C)C)c1)C(=O)CN1CCCC1 [Example 172, Isopropyl 2-{3-[(N-{3-[4-amino-2-(ethoxymethyl)-1H-imidazo[4,5-c]quinolin-1-yl]propyl}-2-{pyrrolidin-1-yl}acetamido)methyl]phenoxy}acetate]
EC50 (human TLR7): 434 nM

CCCOCc1nc2c(N)nc3ccccc3c2n1CCCN(Cc1cccc(OC(C)(C)C(=O)OC)c1)C(=O)CN(CC)CC [Example 174, Methyl 2-{3-[(N-{3-[4-amino-2-(propoxymethyl)-1H-imidazo[4,5-c]quinolin-1-yl]propyl}-2-{diethylamino}acetamido)methyl]phenoxy}-2-methylpropanoate]
EC50 (human TLR7): 117 nM
